The nature of assay [1]: Inhibition of HIV1 RNase H by FRET assay. Set-up: species or system Human immunodeficiency virus 1.
The test system of assay [2] is Escherichia coli. The assay is described as follows: Inhibition of Escherichia coli RNase H at 10 uM by FRET assay.
Assay [3] in a line: Inhibition of HIV2 RNase H by FRET assay. More on the design: species or system Human immunodeficiency virus 2.
A short description of assay [4]: Inhibition of human RNase H by FRET assay.

Activity calls are given as the source filed them. No cut-off for these calls is given here.

`O=C(OC[C@H](OC(=O)c1cc(O)c(O)c(O)c1)C(O)(COC(=O)c1cc(O)c(O)c(O)c1)COC(=O)c1cc(O)c(O)c(O)c1)c1cc(O)c(O)c(O)c1`: the IC50 in assay [1] was 0.24 µM; in assay [3], 0.13 µM; in assay [4] it was 1.5 µM. In addition, the result in assay [2] was inactive.

These data come from ChEMBL document CHEMBL1141326, “An HIV RNase H inhibitory 1,3,4,5-tetragalloylapiitol from the African plant Hylodendron gabunensis” (J Nat Prod, 2007).
